Several values for one entry are separate records, joined by “and”; a condition that tells them apart may be missing. Equal values may be shown once. Where only a bound is given, the exact number is not on record here.

In this assay the target is T1, NS3 (West Nile virus, UniProt K4FQI5).
T1 sequence (K4FQI5 whole entry): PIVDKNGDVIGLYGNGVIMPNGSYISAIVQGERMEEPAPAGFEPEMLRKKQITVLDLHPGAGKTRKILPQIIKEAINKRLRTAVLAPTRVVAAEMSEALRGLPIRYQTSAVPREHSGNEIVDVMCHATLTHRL
The assay can be described thus: Functional biochemical assay to identify treatments for viral infectious disease that targets West Nile NS2B-NS3 protease. Utilizing a direct enzyme activity measurement method, reading the fluorescence intensity is used to characterize the relative potency of inhibitors as IC50. Further details: species or system NY-99.

In general, IC50 refers to the concentration that inhibits the measured activity by half. Compound `O=C(Nc1ccc2c(n1)CNC2)c1cc(Cl)cc2[nH]ncc12` had an IC50 of 35.2 µM.
On to `O=C(Nc1ccc2c(c1)CNC2)c1cccc2[nH]ccc12`, for which the IC50 was found to be 8.63 µM. This IC50 is about 4.1-fold lower than that of the compound before.
The same measure for `Clc1cc([C@@H]2C[C@H]2c2cccc(C3CCNCC3)c2)c2cn[nH]c2c1`: 10.9 µM.
For `CCNC(=O)Nc1cc(Cl)cc(C(=O)Nc2cc(C)cc(CN)c2)c1`, half-maximal inhibition (IC50) was put at 19.8 µM.
`CO[C@H]1C[C@H](n2cc3c(C(=O)Nc4ccc5c(c4)CNC5)cc(Cl)cc3n2)C1` showed an IC50 of 13.9 µM.
Regarding `O=C(Nc1ccc2c(c1)CNC2)c1cc(Cl)ccc1SC1CCCC1`, the IC50 is > 99.5 µM.
In the case of `NCCc1cccc(NC(=O)c2cc(Cl)cc(NC(=O)OCc3ccccc3)c2)c1`, the IC50 was 23.6 µM. In other words, the double-digit micromolar range.
For `NCc1cccc(NC(=O)C[C@@H](NC(=O)OCc2ccccc2)c2ccc(OCc3ccccc3)cc2)c1`, the IC50 was determined as 6.15 µM.
Consider `O=C(Nc1ccc2c(c1)CN[C@H]2C[C@H](O)CO)c1cc(Cl)cc2[nH]ncc12`, for which half-maximal inhibition (IC50) required 5.56 µM.
With `O=C(NCc1cccnc1)[C@H](Nc1ccc2c(c1)CNC2)c1cc(Cl)cc2[nH]ncc12`, the IC50 worked out at 1.37 µM.
The compound `O=C(Nc1ccc2c(c1)CNC2)c1ccc2[nH]cc(C3CCNCC3)c2c1` showed an IC50 of 11.5 µM. Compared with the last compound, the IC50 is about 8.4-fold higher.
With `Cc1nc2c(C(=O)Nc3ccc4c(c3)CNC4)cc(Cl)cc2[nH]1`, the IC50 was > 12.4 µM.
The same measure for `CNC(=O)[C@H](Nc1cc(CN)cc(C(=O)O)c1)c1cc(Cl)cc(C2CC2)c1`: 1.46 µM; for `O=C(Nc1ccc2c(c1)CNC2)c1cc(F)cc(/C=C/c2ccccc2)c1`: 2.91 µM.
On to `CCNC(=O)Nc1cc(Cl)cc(C(=O)Nc2ccc3c(c2)CNCCO3)c1`, for which the IC50 was determined as 15.5 µM.
`O=C(Nc1ccc2c(c1)CNC2)c1cc(F)cc(-c2c[nH]c(=O)c(F)c2)c1` displayed an IC50 of 0.665 µM.
As for `CCCNC(=O)[C@H](Nc1ccc2c(c1)CNC2)c1cc(Cl)cc2[nH]ncc12`, the midpoint of inhibition, the IC50, lay at 0.356 µM.
Turning to `O=C(Nc1cc2c(c(C3=CCS(=O)(=O)CC3)c1)CNC2)c1cc(F)cc2[nH]ncc12`, it took 0.892 µM to reach half-maximal inhibition (IC50).
As for `Cc1cccc(-c2nc3c(C(=O)Nc4ccc5c(c4)CNC5)cc(Cl)cc3[nH]2)c1O`, the figure is 17.4 µM.
`O=C(Nc1ccc2c(c1)CNC2)c1cc(Br)cc2[nH]c(-c3ccccc3)nc12` gave an IC50 of 11.4 µM.
The compound `CCNC(=O)Nc1cc(Cl)cc(C(=O)Nc2cccc(CN)c2)c1` displayed an IC50 of 21.6 µM. This IC50 is about 1.9-fold higher than that of the compound before.
For `O=C(Nc1ccc2c(c1)CN[C@H]2CCO)c1cc(F)cc2[nH]ncc12`, the IC50 was 1.66 µM.
The same measure for `NCCc1cc(Cl)cc(C(=O)Nc2cccc(CN)c2)c1`: 5.52 µM.
As for `O=C(NCC(F)F)[C@H](Nc1ccc2c(c1)CNC2)c1cc(Cl)cc(C2CC2)c1`, the figure is 129 nM (2×) and 840 nM; as for `CCCCCC(=O)N[C@H](C(=O)Nc1ccc2[nH]ncc2c1)c1ccc(OCc2ccccc2)cc1`, > 99.5 µM; as for `CCc1cccc(-c2nc3c(C(=O)Nc4ccc5c(c4)CNC5)cc(F)cc3[nH]2)c1`, 18.9 µM.
`CCOCCNC(=O)[C@H](Nc1ccc2c(c1)CNC2)c1cc(Cl)cc2[nH]ncc12`: the IC50 came out at 0.465 µM.
In the case of `Cc1c(C(=O)Nc2cc(-c3cccnc3)ccn2)cc(C2CC2)n1C`, the IC50 stood at 12.8 µM. This IC50 lies about 28-fold higher than the previous one.
`CC(C)c1nnc(-c2nc3c(C(=O)Nc4ccc5c(c4)CNC5)cc(F)cc3[nH]2)s1` came in with an IC50 of 11.8 µM. This IC50 and that of the compound before are within 1.5-fold of each other.
As for `O=C(Nc1ccc2c(c1)CNC2)c1cc(Cl)cc2[nH]c(CCc3cccnc3)nc12`, the figure is 87.1 µM.
Compound `Cn1ccc(-c2cc(F)cc(C(=O)Nc3ccc4c(c3)CNC4)c2)cc1=O` displayed an IC50 of 2.23 µM.
Take `O=C(Nc1cc(Cl)cc([C@H](C#CCO)Nc2cccc(-c3nn[nH]n3)c2)c1)OCc1ccccc1`: the IC50 worked out at 34.2 µM.
The same measure for `CCCn1cc2c(C(=O)Nc3ccc4c(c3)CNC4)cc(Cl)cc2n1`: 1.97 µM; for `NCCc1cccc(NC(=O)c2cc(Cl)cc3[nH]ncc23)c1`: 94.5 µM; for `CS(=O)(=O)NC(=O)c1cc(Cl)ccc1NS(=O)(=O)c1ccc(Oc2ccccc2Cl)cc1`: 74.5 µM.
As to `O=C(NCC(F)F)[C@H](Nc1ccc2c(c1)CNC2)c1cc(Br)cc2[nH]ccc12`, the IC50 was 0.556 µM.
Regarding `O=C(Nc1cc(Cl)cc(C(=O)Nc2cccc([C@H]3C[C@H]3C(=O)O)c2)c1)OCc1ccccc1`, the IC50 amounted to 81.5 µM.
In turn, `COCc1cc(Cl)cc(C(=O)Nc2ccc3c(c2)CNC3)c1` returned an IC50 of 73.2 µM.
As for `O=C(Nc1ccc2c(c1)CNC2)c1cccc2ccncc12`, the figure is 11.4 µM.
Compound `NCc1cccc(NC(=O)c2cc(Cl)cc3[nH]ncc23)c1` came in with an IC50 of 35.8 µM.
Regarding `Cc1ccc(S(=O)(=O)CNC(=O)[C@H](Nc2ccc3c(c2)CNC3)c2cc(Cl)cc3[nH]ncc23)cc1`, half-maximal inhibition (IC50) was put at 11.7 µM.
Consider `C[C@@H](Oc1ccc(S(=O)(=O)Nc2ccc(Cl)cc2C(=O)O)cc1)c1ccccc1F`, for which half-maximal inhibition (IC50) was put at 20.1 µM.
In turn, `CC(C)n1ncc2c(C(=O)Nc3ccc4c(c3)CNC4)cc(Cl)cc21` registered an IC50 of 18.2 µM.
As for `O=C(NC[C@H]1CCCO1)[C@H](Nc1ccc2c(c1)CNC2)c1cc(Cl)cc2[nH]ncc12`, the figure is 1.16 µM.
`O=C(Nc1ccc2c(c1)CNC2)c1cc(F)cc(C2=CCCOC2)c1` gave an IC50 of 9.61 µM.
In turn, `O=C(Nc1ccc2c(c1)CNC2)c1cc(Cl)ccc1-n1cncn1` returned an IC50 of 42.7 µM.
Consider `CCCn1ncc2c(C(=O)Nc3ccc4c(c3)CNC4)cc(Cl)cc21`, for which the IC50 worked out at 12.5 µM.
As for `O=C(Nc1ccc2c(c1)CNC2)c1cccc2c1[C@]1(CCN(C(=O)OCc3ccccc3)C1)C(=O)N2`, the figure is 3.55 µM; as for `O=C(Nc1ccc2c(c1)CNC2)c1cccc2c1[C@]1(CCNC1)C(=O)N2`, 1.62 µM.
Regarding `O=C(Nc1ccc2c(c1)CNC2)c1cc(Cl)cc2[nH]c(C3(n4ccnn4)CC3)nc12`, the IC50 was > 99.5 µM.
Regarding `N#C[C@H](Nc1ccc2c(c1)CNC2)c1cc(Cl)cc(C2CC2)c1`, the IC50 was 59 µM.
Consider `Cc1cnccc1-c1cc(NC(=O)c2cc(F)cc3[nH]ncc23)cc2c1CNC2`, for which the IC50 worked out at 2.77 µM.
As for `O=C(Nc1ccc2c(c1)CNC2)c1cccc2[nH]c(C(F)(F)F)cc12`, the figure is 2.51 µM; as for `NCCc1ccc(NC(=O)c2cc(Cl)cc(NC(=O)OCc3ccccc3)c2)cc1`, 16 µM; as for `NCc1cc(/C=C/C(=O)O)cc(NC(=O)c2cc(Cl)cc(NC(=O)OCc3ccccc3)c2)c1`, 85 µM.
Compound `CC(C)CNC(=O)[C@H](Nc1ccc2c(c1)CNC2)c1cc(Cl)cc2[nH]ncc12` had an IC50 of 0.643 µM.
As for `Cn1cc(CNC(=O)[C@H](Nc2ccc3c(c2)CNC3)c2cc(Cl)cc(C3CC3)c2)cn1`, the IC50 was 1.07 µM.
On to `N=C(N)NCc1ccc(OC(=O)Nc2ccccc2)cc1`, for which the IC50 was > 100 µM.
Turning to `O=C(Nc1ccc2c(c1)CNC2)c1cc(F)cc2[nH]c(-c3ccccc3F)nc12`, the IC50 was found to be 2.39 µM.
As for `O=C(Nc1ccc2c(c1)CNC2)c1cc(Cl)cc(-n2cccc2)c1`, the figure is 12.9 µM; as for `CNC(=O)[C@H](Nc1ccc2c(c1)CNC2)c1cc(Cl)cc2c1OCC2`, 3.8 µM.
The same measure for `O=C(Nc1ccc2c(c1)CNC2)c1cc(Cl)cc2nn(C3CCC3)cc12`: 14.7 µM; for `COc1cc(Br)cc(C(=O)Nc2ccc3c(c2)CNC3)c1`: 92.7 µM; for `O=C(Nc1ccc2c(c1)CN[C@H]2[C@H](O)CO)c1cc(F)cc2[nH]ncc12`: 6.73 µM.
Turning to `O=C(Nc1ccc2c(c1)CNC2)c1cc(F)c2[nH]ccc2c1`, inhibition was half-maximal at 20.1 µM (IC50).
Take `CC(C)NC(=O)[C@H](Nc1ccc2c(c1)CNC2)c1cc(Cl)cc2[nH]ncc12`: the IC50 is 0.386 µM and 0.292 µM and 0.336 µM.
Turning to `O=C1Cc2c(cc(Br)cc2C(=O)Nc2ccc3c(c2)CNC3)N1`, the half-maximal inhibitory concentration (IC50) is 3.18 µM.
`O=C(Nc1ccc2c(c1)CNC2)c1cc(Br)cc2[nH]ncc12` displayed an IC50 of 12.9 µM.
Regarding `O=C(Nc1ccc(F)nc1)Oc1ccccc1`, the IC50 was > 100 µM.
Regarding `CCc1cc(Cl)cc(C(=O)Nc2ccc3c(c2)CNC3)c1`, the IC50 was > 99.5 µM.
The same measure for `O=C(NCC(F)F)[C@H](Nc1ccc2c(c1)CNC2)c1cc(F)cc2[nH]ccc12`: 0.768 µM; for `CC(C)NC(=O)[C@H](Nc1ccc2c(c1)CNC2)c1cc(Cl)cc2[nH]c(-c3ccccc3)nc12`: 0.28 µM and 0.286 µM and 0.152 µM and 0.255 µM; for `O=C(Nc1ccc2c(c1)CN[C@H]2C[C@H](O)CO)c1cc(F)cc2[nH]ncc12`: 2.41 µM.
`Nc1noc2cccc(C(=O)Nc3ccc4c(c3)CNC4)c12`: the midpoint of inhibition, the IC50, lay at 76.8 µM.
In turn, `O=C(NCC(F)F)[C@H](Nc1ccc2c(c1)CNC2)c1cc(Cl)cc2[nH]ncc12` yielded an IC50 of 2.64 µM. This IC50 is about 29-fold lower than that of the compound before.
On to `CNC(=O)[C@H](Nc1ccc2c(c1)CNC2)c1cc(Cl)cc2[nH]ncc12`, for which the IC50 came out at 0.677 µM.
Regarding `O=C(NCCCF)[C@H](Nc1ccc2c(c1)CNC2)c1cc(Cl)cc(C2CC2)c1`, the IC50 is 0.249 µM. This IC50 is about 2.7-fold lower than that of the compound before.
The same measure for `O=C(Nc1cc2c(cc1C1CC1)CNC2)c1cc(F)cc2[nH]ncc12`: 0.832 µM; for `O=C(Nc1cc2c(c(-c3c[nH]c(=O)c(F)c3)c1)CNC2)c1cc(F)cc2[nH]ncc12`: 0.668 µM; for `CCOC(=O)[C@H](Nc1ccc2c(c1)CNC2)c1cc(Cl)cc(C2CC2)c1`: 0.845 µM.
Regarding `O=C(NCCOCC1CC1)[C@H](Nc1ccc2c(c1)CNC2)c1cc(Cl)cc(C2CC2)c1`, the IC50 is 0.366 µM. Against the preceding compound, the IC50 is about 2.3-fold lower.
`O=C(Nc1cc2c(c(C3=CCOCC3)c1)CNC2)c1cc(F)cc2[nH]ncc12` had an IC50 of 0.627 µM.
The compound `CNC(=O)[C@H](Nc1ccc2c(c1)CNC2)c1cc(Cl)cc2[nH]c(-c3ccccc3)nc12` returned an IC50 of 0.281 µM.
For `COc1cc(-c2cc(NC(=O)c3cc(F)cc4[nH]ncc34)cc3c2CNC3)ccn1`, the midpoint of inhibition, the IC50, lay at 0.801 µM.
As for `COc1cccc(-c2nc3c(C(=O)Nc4ccc5c(c4)CNC5)cc(F)cc3[nH]2)c1`, the figure is 6.6 µM; as for `O=C(Nc1ccc2c(c1)CNC2)c1cc(Cl)cc2nn(C3CCOCC3)cc12`, 14 µM.
Turning to `O=C(O)c1ccc(-c2cc(NC(=O)c3cc(F)cc4[nH]ncc34)cc3c2CNC3)cc1`, the IC50 came out at 1.15 µM.
For `O=C(Nc1ccc2c(c1)CNC2)c1cc(F)cc2[nH]c(-c3ccc(F)cc3O)nc12`, the IC50 was found to be 24.1 µM.

For the origin of these results see ChEMBL document CHEMBL5604061, “ASAP - WNV NS2B-NS3 protease fluorescence dose response” (2024).
